This note sets out measurements from patent US20070196349A1, “Whitening composition containing reduced coenzyme Q” (KANEKA CORPORATION, priority 2004, published 2007).

The structures appear in SMILES notation. Marks after values point to notes of the source that are not given here.

Experiment [1] relates to Normal human dermal fibroblasts (NHDF). Kind of experiment: Cell activation-promoting effect in dermal fibroblasts (cellular ATP level). It is filed as cell-based. The following applies: for ATP level: 48 hours culture with sample. How it is done: Normal human dermal fibroblasts (NHDF: product of Kurabo Industries, Ltd.) were incubated in the basal medium Medium 106S (product of Kurabo Industries, Ltd.) supplemented with 2% fetal bovine serum, 10 μg/ml of heparin, 1 μg/ml of hydrocortisone, 10 ng/ml of human recombinant epidermal growth factor, and 3 ng/ml of human recombinant basic fibroblast growth factor under conditions of 37° C. and 5% CO2. After confluence, the cells were seeded onto a 96-well microplate (2.0×10^3 cells/well). In seeding, Medium 106S (product of Kurabo Industries, Ltd.) supplemented with 2% fetal bovine serum, 10 μg/ml of heparin, and 1 μg/ml of hydrocortisone was used. After 24 hours culture, the medium was exchanged to the same medium supplemented with a sample specimen in order to further culture for 48 hours. After that, the medium was removed and then the cells were rinsed with PBS, and cellular ATP level was determined using ATP assay kit (product of PerkinElmer) for comparison. The parametrical multiple comparison (Turkey type) was carried out in statistical processing, and the symbol “*” refers that the percentage of risk is less than 5%, and the symbol “**” refers that the percentage of risk is less than 1%, in comparison with the control group containing solvent only. In addition, the symbol “†” at the numerical value refers that the percentage of risk is less than 5% in comparison with oxidized coenzyme Q10.

Experiment [2] has the same test system. Put plainly: Effect for protecting cells from oxidation stress in dermal fibroblasts (cellular ATP level after hydrogen peroxide). Format: cell-based. Particulars: for ATP level: 1 mM hydrogen peroxide for 15 minutes. How it is done: Normal human dermal fibroblasts (NHDF: product of Kurabo Industries, Ltd.) were incubated in the basal medium Medium 106S (product of Kurabo Industries, Ltd.) supplemented with 2% fetal bovine serum, 10 μg/ml of heparin, 1 μg/ml of hydrocortisone, 10 ng/ml of human recombinant epidermal growth factor, and 3 ng/ml of human recombinant basic fibroblast growth factor under conditions of 37° C. and 5% CO2. After confluence, the cells were seeded onto a 96-well microplate (2.0×10^3 cells/well). In seeding, Medium 106S (product of Kurabo Industries, Ltd.) supplemented with 2% fetal bovine serum, 10 μg/ml of heparin, and 1 μg/ml of hydrocortisone was used. After 24 hours culture, the medium was exchanged to the same medium supplemented with a sample specimen, and after 24 hours, it was exchanged to Medium 106S (product of Kurabo Industries, Ltd.) supplemented with 2% fetal bovine serum, 10 μg/ml of heparin, 1 μg/ml of hydrocortisone, 7.5 μg/ml of coenzyme A, and a sample specimen in order to further culture for 48 hours. After that, the medium was removed to be exchange to the medium supplemented with 1 mM hydrogen peroxide (product of Wako Pure Chemical Industries), and then the cells were incubated for 15 minutes followed by rinsing with PBS, and cellular ATP level was determined using ATP assay kit (product of PerkinElmer) for comparison. The parametrical multiple comparison (Turkey type) was carried out in statistical processing, and the symbol “†” refers that the percentage of risk is less than 5% in comparison with the control group containing solvent only.

Another experiment relates to brown guinea pigs. Kind of experiment: Inhibitory effect on pigmentation due to ultraviolet radiation. Format: in vivo, guinea pig. Particulars: average of scores (Table 1) of six brown guinea pigs, #=(L1−L0)−(L′1−L′0), sample vs medium, UVB-irradiated dorsal skin, polyethylene glycol ointment containing 10 parts by weight of reduced coenzyme Q10 applied once a day for one month. How it is done:
The dorsal hair of six brown guinea pigs was carefully shaved with a clipper or shaver, and the shaved dorsal skin of each guinea pig was irradiated with ultraviolet beams (UVB: wavelength 250 to 350 nm) in the minimum erythema dose at two square portions of 2 cm′2 cm on the right and left of the dorsal median. The ultraviolet irradiation was performed once every other day for three days to induce erythema. Also, a medium and a sample were continuously applied to the respective irradiated portions (erythema portions) once a day for one month to examine the inhibitory action on pigmentation. As the sample, a polyethylene glycol ointment containing 10 parts by weight of reduced coenzyme Q10 was used. As the medium, only polyethylene glycol was used. Evaluation was performed by measurement with a color-difference meter, and an L value was calculated from the observed Munsell value.
Namely, DL (change with time) of the medium-applied portion was subtracted from DL (change with time) of the opposite sample-applied portion to obtain a value (#) according to the following equation: #=(L1−L0)−(L′1−L′0)
L0: Test portion before application of the sample
L′0: Test portion before application of the medium
L1: Sample-applied test portion one month after continuous application
L′1: Medium-applied test portion one month after continuous application […]

For `COC1=C(OC)C(=O)C(C/C=C(\C)CC/C=C(\C)CC/C=C(\C)CC/C=C(\C)CC/C=C(\C)CC/C=C(\C)CC/C=C(\C)CC/C=C(\C)CC/C=C(\C)CCC=C(C)C)=C(C)C1=O` [Oxidized coenzyme Q10, oxidized coenzyme Q10, reference compound], the ATP level is 183.23 ± 62.70 nM in experiment [1] (0.12 μg/ml), 224.84 ± 43.55* nM in experiment [1] (0.98 μg/ml), 82.29 ± 9.08 nM in experiment [2] (8.13 μg/ml) and 103.41 ± 1.17 nM in experiment [2] (100 μg/ml). Further, the “cellular ATP level compared with the solvent control” value in experiment [1] (result in words) is listed as “significantly increase the cellular ATP level”.
For `COc1c(O)c(C)c(C/C=C(\C)CC/C=C(\C)CC/C=C(\C)CC/C=C(\C)CC/C=C(\C)CC/C=C(\C)CC/C=C(\C)CC/C=C(\C)CC/C=C(\C)CCC=C(C)C)c(O)c1OC` [Reduced coenzyme Q10, reduced coenzyme Q10], the Average evaluation score in the experiment on brown guinea pigs is 2.17; in the experiment on brown guinea pigs (listed as reduced coenzyme Q10), 2 (0 ≦ # < 0.5). In addition, the ATP level in experiment [1] (0.12 μg/ml) was 277.21 ± 46.02**† nM; in experiment [1] (0.98 μg/ml), 267.24 ± 20.72** nM; in experiment [2] (8.13 μg/ml), 73.93 ± 4.96 nM; in experiment [2] (100 μg/ml), 112.47 ± 5.45 nM. The “cellular ATP level compared with the solvent control” value in experiment [1] (result in words) is listed as “significantly increase the cellular ATP level”; in experiment [2] (100 μg/ml, hydrogen peroxide oxidation stress, result in words), “significantly increase the cellular ATP level”. For the same molecule, the “cellular ATP level, reduced compared with oxidized coenzyme Q10” value in experiment [1] (result in words) is “significantly increase the cellular ATP level”.
